Laboratory results published in PMC12472494, “Anticonvulsant Potential of 1-Aryl-6,7-dimethoxy-1,2,3,4-tetrahydroisoquinolines: Insights from Strychnine and Nicotine Models in In Vivo and In Silico Studies” (Pharmaceuticals, 2025).
Values joined by “and” are separate entries in the source; they are usually repeats but may differ in a detail not shown here. Identical values can stand only once. “Also recorded” adds a separate entry of the source.

Assays:
[1] = set-up: method as in PMID 36677539; details: per os; cited from earlier work
[2] = test system: strychnine-induced seizures; assay: Strychnine-induced seizure model; type: in vivo, mice; details: for responders at 1 mg/kg: Mus musculus, read-out: Survival Rate; for responders at 1 mg/kg / Duration of Tremor and Seizures / Latency to Tremor and Seizure Onset: oral dose 1.0 mg/kg 60 min before strychnine 1.5 mg/kg s.c., N = 10; for Duration of Tremor and Seizures / Latency to Tremor and Seizure Onset: mean ± SD; for survival rate of strychnine-poisoned animals: dose not given; for activity against strychnine-induced seizures (in words): ranking within the series
Text: (§1) The anticonvulsant effects of the examined substances were studied in male white mice weighing 18–22 g, divided into the following groups: control (including the strychnine and nicotine groups), carbamazepine group, Convulex group, and experimental groups (one for each tested substance). Simple randomization (“heads or tails” coin toss) was used to assign animals to groups. Each group contained 10 animals. Healthy animals were included in the experiments after a 14-day quarantine period. No animals were excluded from the study. Convulsant agents were administered subcutaneously at doses of 10.0 mg/kg for nicotine (Sigma–Aldrich, Saint Louis, MO, USA) and 1.5 mg/kg for strychnine (Sigma–Aldrich, Saint Louis, MO, USA), 60 min after the oral administration of the test substances at doses ranging from 0.1 to 10 mg/kg. The onset time, duration of tremors and seizures, and survival rate of the animals were recorded. Carbamazepine (Darnitsa, Kiev, Ukraine) at doses of 5.0–10.0 mg/kg and Convulex (valproate) (Gerot Pharmazeutika GmbH, Vienna, Austria) at doses of 75.0–100.0 mg/kg (based on the therapeutic anticonvulsant dose) were used as reference drugs.
(§2) Data were presented as mean ± SD for different groups. Statistical analysis was performed using OriginPro 9.0 (MicroCal Software, Northampton, MA, USA), with p < 0.05 considered statistically significant.

[3] = test system: tremorogenic and convulsive actions of nicotine; assay: Nicotine-induced tremor and seizure model; type: in vivo, mice; details: for responders at 1 mg/kg: Mus musculus, po, read-out: Survival Rate; for survival rate of the animals increased to: at low doses (0.1–5 mg/kg); for activity against tremorogenic and convulsive actions of nicotine versus reference drugs (in words): doses of 0.1–5 mg/kg; for Duration of Seizures / Latency to Seizure Onset: oral dose 1.0 mg/kg 60 min before nicotine 10 mg/kg s.c., mean ± SD, N = 10; for survival of poisoned animals compared to carbamazepine and valproate (in words): mouse, in vivo
Text: as §1, §2

[4] = doses of 0.5–1 mg/kg, versus control

Compound	LD50 [1]	responders at 1 mg/kg [2]	Duration of Tremor and Seizures [2]	Latency to Tremor and Seizure Onset [2]	responders at 1 mg/kg [3]	survival rate of the animals increased to [3]	activity against tremorogenic and convulsive actions of nicotine versus reference drugs (in words) [3]	Duration of Seizures [3]	Latency to Seizure Onset [3]	survival rate of strychnine-poisoned animals [2]	effect on the duration of the seizures ([2]; doses of 1–10 mg/kg)	increase of animal survival ([2]; doses of 1–10 mg/kg)	extension of the latency period for seizures ([2]; doses of 1–10 mg/kg, versus control)	activity against strychnine-induced seizures (in words) [2]	survival of poisoned animals compared to carbamazepine and valproate (in words) [3]	increase of animal survival ([2]; doses of 0.5–1 mg/kg)	extension of the latency period for seizures [2, 4]	reduction of seizure duration [2, 4]
COc1cc2c(cc1OC)C(c1cccc(Br)c1)NCC2 (stereo not shown) [Compound 14, 1-(3′-Bromophenyl)-6,7-dimethoxy-1,2,3,4-tetrahydroisoquinoline]	446.7 (416.2 ± 471.3) mg/kg	60%	0.35 ± 0.8 min	18.5 ± 1.5 min	90%	90–100%	comparable activity to the reference drugs	2.5 ± 0.4 min	2.8 ± 0.02 min	–	–	–	–	–	–	–	–	–
COc1cc2c(cc1OC)C(c1ccc(Br)cc1)NCC2 (stereo not shown) [Compound 15, 1-(4′-Bromophenyl)-6,7-dimethoxy-1,2,3,4-tetrahydroisoquinoline]	422.0 (399.4 ± 445.3) mg/kg	40%	0.50 ± 0.5 min	12.5 ± 1.2 min	70%	–	–	8.3 ± 0.3 min	2.2 ± 0.07 min	no more than 40%	–	–	–	–	–	–	–	–
COc1cc2c(cc1OC)C(c1ccc(N(C)C)cc1)NCC2 (stereo not shown) [Compound 16, 1-(4′-Dimethylaminophenyl)-6,7-dimethoxy-1,2,3,4-tetrahydroisoquinoline]	498.3 (471.6 ± 524.6) mg/kg	50%	0.31 ± 0.6 min	13.1 ± 1.5 min	90%	90–100%	comparable activity to the reference drugs	8.5 ± 0.7 min	2.7 ± 0.08 min	–	–	–	–	–	–	–	–	–
COc1cc2c(cc1OC)C(c1cc(Br)ccc1O)NCC2 (stereo not shown) [Compound 17, 1-(2′-Hydroxy-5′-bromophenyl)-6,7-dimethoxy-1,2,3,4-tetrahydroisoquinoline]	297.3 (270.2 ± 323.7) mg/kg	40%	0.61 ± 0.5 min	15.7 ± 1.6 min	70%	–	–	8.1 ± 0.8 min	2.1 ± 0.07 min	–	–	–	–	–	–	–	–	–
COc1cc2c(cc1OC)C(c1ccc(O)c(Br)c1)NCC2 (stereo not shown) [Compound 18, 1-(3′-Bromo-4′-hydroxyphenyl)-6,7-dimethoxy-1,2,3,4-tetrahydroisoquinoline]	3850 mg/kg and 3793.8 (3395.8 ± 4088.1) mg/kg	50%	0.56 ± 0.6 min	14.6 ± 1.5 min	70%	–	–	8.9 ± 0.9 min	1.7 ± 0.04 min	–	–	–	–	–	–	–	–	–
COc1ccc(C2NCCc3cc(OC)c(OC)cc32)cc1Br (stereo not shown) [Compound 19, 1-(3′-Bromo-4′-methoxyphenyl)-6,7-dimethoxy-1,2,3,4-tetrahydroisoquinoline]	327.9 (287.1 ± 363.8) mg/kg	40%	0.59 ± 0.9 min	16.0 ± 1.4 min	80%	–	–	19.0 ± 0.8 min	1.8 ± 0.07 min	–	–	–	–	–	–	–	–	–
COc1ccc(C2NCCc3cc(OC)c(OC)cc32)cc1O (stereo not shown) [Compound 20, 1-(3′-Hydroxy-4′-methoxyphenyl)-6,7-dimethoxy-1,2,3,4-tetrahydroisoquinoline]	964.8 (916.5 ± 998.2) mg/kg	90%	0.63 ± 0.7 min	18.2 ± 1.4 min	70%	–	–	11.0 ± 0.7 min	2.8 ± 0.07 min	~90%	minimal effect	90%	27–86%	most active; also recorded: highest activity	–	–	–	–
COc1cc(C2NCCc3cc(OC)c(OC)cc32)ccc1O (stereo not shown) [Compound 21, 1-(4′-Hydroxy-3′-methoxyphenyl)-6,7-dimethoxy-1,2,3,4-tetrahydroisoquinoline]	1663.6 (1623.1 ± 1629.1) mg/kg	40%	0.52 ± 0.4 min	15.4 ± 1.5 min	60%	–	–	14.3 ± 0.6 min	1.8 ± 0.04 min	–	–	–	–	–	–	–	–	–
COc1ccc(C2NCCc3cc(OC)c(OC)cc32)cc1OC (stereo not shown) [Compound 22, 1-(3′,4′-Dimethoxyphenyl)-6,7-dimethoxy-1,2,3,4-tetrahydroisoquinoline]	666.6 (557.9 ± 760.2) mg/kg	30%	0.71 ± 0.6 min	12.7 ± 1.3 min	80%	–	–	–	2.2 ± 0.04 min	no more than 40%	–	–	–	–	–	–	–	–
COc1cc2c(cc1OC)C(c1cccc(OC)c1[N+](=O)[O-])NCC2 (stereo not shown) [Compound 23, 1-(3′-Methoxy-2′-nitrophenyl)-6,7-dimethoxy-1,2,3,4-tetrahydroisoquinoline]	315.4 (281.0 ± 344.2) mg/kg	30%	0.60 ± 0.4 min	14.6 ± 1.4 min	20%	–	–	5.4 ± 0.9 min	1.5 ± 0.08 min	–	–	–	–	–	–	–	–	–
COc1cc(Br)c(C2NCCc3cc(OC)c(OC)cc32)cc1O (stereo not shown) [Compound 24, 1-(2′-Bromo-4′-methoxy-5′-hydroxyphenyl)-6,7-dimethoxy-1,2,3,4-tetrahydroisoquinoline]	546.9 (516.3 ± 571.6) mg/kg	30%	0.32 ± 0.4 min	10.2 ± 1.2 min	70%	–	–	7.3 ± 0.3 min	2.1 ± 0.09 min	–	–	–	–	–	did not improve the survival	–	–	–
COc1cc(Br)c(C2NCCc3cc(OC)c(OC)cc32)cc1OC (stereo not shown) [Compound 25, 1-(2′-Bromo-4′,5′-dimethoxyphenyl)-6,7-dimethoxy-1,2,3,4-tetrahydroisoquinoline]	272.1 (249.1 ± 295.6) mg/kg	90%	0.14 ± 0.6 min	16.5 ± 1.5 min	90%	90–100%	comparable activity to the reference drugs	9.0 ± 0.9 min	2.2 ± 0.04 min	90%	–	–	–	most active; also recorded: highest activity	–	90%	30–100%	3.7–4 times
COc1cc2c(cc1OC)C(c1cc(OC)c(OC)cc1[N+](=O)[O-])NCC2 (stereo not shown) [Compound 26, 1-(4′,5′-Dimethoxy-2′-nitrophenyl)-6,7-dimethoxy-1,2,3,4-tetrahydroisoquinoline]	524.5 (501.3 ± 547.7) mg/kg	40%	0.51 ± 0.8 min	16.7 ± 1.2 min	80%	–	–	10.8 ± 0.4 min	2.6 ± 0.03 min	–	–	–	–	–	–	–	–	–
COc1cc2c(cc1OC)C(c1ccc(OC)c(O)c1Br)NCC2 (stereo not shown) [Compound 27, 1-(2′-Bromo-3′-hydroxy-4′-methoxyphenyl)-6,7-dimethoxy-1,2,3,4-tetrahydroisoquinoline]	4700 mg/kg and 4937 mg/kg and 4937.4 (4827.7 ± 5084.9) mg/kg	40%	0.53 ± 0.3 min	10.5 ± 1.5 min	90%	90–100%	comparable activity to the reference drugs	9.7 ± 0.9 min	2.2 ± 0.02 min	–	–	–	–	–	did not improve the survival	–	–	–
COc1cc2c(cc1OC)C(c1cc(Br)c(O)c(OC)c1)NCC2 (stereo not shown) [Compound 28, 1-(5′-Bromo-4′-hydroxy-3′-methoxyphenyl)-6,7-dimethoxy-1,2,3,4-tetrahydroisoquinoline]	1532.7 (1471.5 ± 1579.5) mg/kg	20%	0.34 ± 0.8 min	15.5 ± 1.5 min	70%	–	–	9.2 ± 0.4 min	2.7 ± 0.04 min	–	–	–	–	–	did not improve the survival	–	–	–
